# Results reported in US20170079966A1, “INHIBITION OF TUMOR CELL INTERACTIONS WITH THE MICROENVIRONMENT RESULTING IN A REDUCTION IN TUMOR GROWTH AND DISEASE PROGRESSION” (Deciphera Pharmaceuticals, LLC, priority 2014, published 2017).
# What was measured:
# B16/F10 cells = assay: B16/F10 metastatic melanoma model; conditions: Compound 1 15 mg/kg
# [1] = system: SK-MEL-28 and SK-MEL-5 cells (pERK, pMET, AKT); assay: HGF-stimulated melanoma cell signal transduction assay; type: cell-based; conditions: 50 nM, 50 ng/mL HGF 1 hr
# Experimental: SK-MEL-5 and SK-MEL-28 cells were added to 12-well plates at 450,000 and 250,000 cells/well, respectively, and incubated overnight. […] Cells were then stimulated with 50 ng/mL HGF for 1 hr. Antibodies were obtained from Cell Signaling Technology.
# [2] = system: circulating TIE2+ and TIE2+/MET+ monocytes; assay: Flow cytometry of circulating TIE2/MET-expressing monocytes from U87-MG xenograft model; type: in vivo, mice; conditions: single agents; after five weeks of treatment
# Experimental: Flow cytometry of circulating TIE2/MET-expressing monocytes from U87-MG xenograft model. Peripheral blood samples were fixed using Lyse/Fix buffer (BD Biosciences, San Jose, Calif.). BD Fc Block was added and cells were stained with CD11b-PECy7 and Gr1-APC antibodies (BD Pharmingen), and TIE2-PE and MET-FITC antibodies (eBioscience) or isotype controls. Data was collected on an Accuri C6 cytometer. Monocytes were gated using side and forward scatter.
# To monitor these monocytes in the U87 survival model, peripheral monocytes were gated on CD11b+/Grl-surface markers and TIE2^+ and/or TIE2^+/MET^+ cells quantitated. In the U87 glioma survival study, we observed both of these TIE2^+ expressing monocyte populations in the circulation of vehicle-treated mice after five weeks of treatment. […] The lowered population of both of these TIE2^+ monocyte populations in the combination cohort was consistent with greater survival benefit (FIG. 6).
# U87-MG xenograft glioma [3] = assay: Orthotopic U87-MG xenograft survival model; conditions: bevacizumab 10 mg/kg IP twice weekly; Compound 1 10 mg/kg twice daily PO; from Day 12
# Experimental: Protocol for in vivo xenograft survival study. Female nude mice were implanted intracranially with one million luciferase-enabled U87-MG cells. Treatments began on Day 12. Mice (n=10/group) were dosed until the end of study. Three additional mice were treated as above for pharmacodynamic analysis after five weeks. Brain BLI signal was determined using an IVIS 50 optical imaging system (Xenogen, Alameda, Calif.). Animals were injected IP with 150 mg/kg D-Luciferin and imaged 10 min post-injection.
# Treatment began on Day 12, when the mean brain BLI signal was 5.8×10^6 photons/sec, and continued until the end of study. Mice were followed through survival.
# U87-MG xenograft glioma [4] = assay: Orthotopic U87-MG xenograft efficacy model (BLI); type: in vivo, mice; conditions: after two weeks of treatment; bevacizumab 5 mg/kg IP every three days; Compound 1 10 mg/kg BID
# Experimental: Protocol for in vivo xenograft efficacy study. […] Treatments began on Day 31.
# The tumor cells were injected intracerebroventricularly (ICV) and tumor growth was monitored in vivo by quantitation of luciferase-mediated BLI.
# GSC11 glioblastoma cells = assay: GSC11 glioma stem cell patient-derived xenograft model (tumor volume, immunohistochemistry); type: in vivo, mice
# Experimental: For the in vivo experiments, 4- to 6-week-old female nude mice that were strictly inbred at The University of Texas MD Anderson Cancer Center and maintained in the MD Anderson Veterinary in accordance with institutional guidelines were used. For the in vivo experiments, GSC11 (5×10^5) or GSC17 (5×10^4) glioblastoma cells were implanted intracranially into nude mice. […] Control mice for these cohorts were treated with phosphate-buffered saline by i.p. injection and/or with 0.4% HPMC vehicle by oral gavage. One cohort of 10 mice per group were treated continuously and followed for survival. A separate cohort of 9 mice per group were treated continuously until the designated time point, and the tumors from these mice were extracted at 3, 4, 5 weeks in GSC11 xenograft mice model and at 3.5, 4.5, 5.5 weeks in GSC17 xenograft mice model after the start of treatment.
# When the mice treated for the designated time period developed signs and symptoms of advanced tumors, they were euthanized, and their brains were removed, fixed in 4% formaldehyde for 24 hours, and embedded in paraffin. The tissues were then sectioned serially (4 μm) and stained with hematoxylin and eosin (Sigma-Aldrich). Tumor formation and phenotype were determined by histologic analysis of the hematoxylin- and eosin-stained sections. The tumor volume, greatest longitudinal diameter (length), and greatest transverse diameter (width) were measured using an external caliper and Adobe Illustrator software. The tumor volumes were calculated by the following formula: volume=½(length×width^2).
# For immunohistochemical analyses, the tissue sections were deparaffinized and subjected to graded rehydration. After blocking the tissue in 5% horse and goat serum and antigen retrieval solution (citrate buffer, pH 6.0), we incubated the tissue sections overnight at 4° C. with primary antibodies against Factor VIII (1:500; A0082, Dako) to assess microvessel formation, vimentin (1:100; M0725, Dako) to assess mesenchymal marker expression, F4/80 (1:50; 123102, BioLegend) to assess monocyte infiltration, nestin (1:300; Ab6142, Abcam) to assess glioma stem cell marker expression, HGF (1:200; LS-B4657, LSBio), and TIE2 (1:50; Santa Cruz Biotechnology) to assess TIE2-expressing monocyte infiltration. Texas red fluorescein isothiocyanate-conjugated secondary antibodies or anti-rat immunoglobulin G antibodies (Invitrogen) were used for 1 hour at room temperature.
# All statistical analyses were conducted with the GraphPad 6 (InStat) software for Windows 7. Survival analysis was conducted using the Kaplan-Meier method, and differences in survival between treatment groups were assessed using the log-rank test. All other comparisons were performed using an unpaired two-tailed Student t-test. Summary statistics for continuous data are expressed as the mean±standard error of the mean. P values less than 0.05 were considered statistically significant. The nestin staining was assessed using the Image-Pro Plus system version 7.0 (Media Cybernetics) in ×10 fields of at least three tumor samples per group with three to four different sections per tumor sample.
# SKOV-3 = SKOV-3 ovarian xenograft model; conditions: in vivo
# uTIE2 kinase = target: T1, uTIE2 kinase (Homo sapiens, UniProt Q02763); assay: Biochemical assay for uTIE2 kinase (pyruvate kinase/lactate dehydrogenase coupled); conditions: ATP 1.5 mM; rate 5 to 6 h; read-out: IC50, inhibition of uTIE2 kinase
# T1 construct: purchased SignalChem
# T1 sequence (Q02763 771-1124): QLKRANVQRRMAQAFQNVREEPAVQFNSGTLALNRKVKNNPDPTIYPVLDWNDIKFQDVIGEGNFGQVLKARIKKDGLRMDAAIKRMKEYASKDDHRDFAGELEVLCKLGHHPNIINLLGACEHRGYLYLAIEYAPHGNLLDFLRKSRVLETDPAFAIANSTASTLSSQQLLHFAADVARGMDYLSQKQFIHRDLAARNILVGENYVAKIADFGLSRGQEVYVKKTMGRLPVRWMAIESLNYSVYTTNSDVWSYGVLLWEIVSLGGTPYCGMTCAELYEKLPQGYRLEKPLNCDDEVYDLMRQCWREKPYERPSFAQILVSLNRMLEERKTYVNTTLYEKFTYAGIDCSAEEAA
# Experimental: Activity of uTIE2 kinase was determined by following the production of ADP from the kinase reaction through coupling with the pyruvate kinase/lactate dehydrogenase system [Schindler 2000]. In this assay, the oxidation of NADH (thus the decrease at A340 nm) was continuously monitored spectrophotometrically. The reaction mixture (100 μL) contained TIE2 (SignalChem) (5.6 nM), BSA (0.004% (w/v)), polyEY (1.5 mg/ml), MgCl2 (15 mM), DTT (0.5 mM), pyruvate kinase (4 units), lactate dehydrogenase (7 units), phosphoenol pyruvate (1 mM), and NADH (0.28 mM) and ATP (1.5 mM) in 90 mM Tris buffer containing 0.2% octyl-glucoside and 1% DMSO, pH 7.5. […] The absorption at 340 nm was monitored continuously for 6 hours at 30° C. on a plate reader (BioTek). The reaction rate was calculated using the 5 to 6 h time frame. Percent inhibition was obtained by comparison of reaction rate with that of a control (i.e. with no test compound).
smiles,measurement,setting,value
"O=C(Nc1cc(Oc2cc(F)c(NC(=O)C3(C(=O)Nc4ccc(F)cc4)CC3)cc2F)ccn1)C1CC1 [Compound 1, N-(4-(2-(cyclopropanecarboxamido)pyridin-4-yloxy)-2,5-difluorophenyl)-N′-(4-fluorophenyl)cyclopropane-1,1-dicarboxamide]",T-C,B16/F10 cells,> 4.3 days
same,Treated animals with metastases on Day 21 (ex vivo BLI),B16/F10 cells; 2/12 animals,16.6%
same,Inhibition of the development of pulmonary metastases,B16/F10 cells; Day 21,72%
same,"% T/C, tumor growth on Day 21",B16/F10 cells; treatment from Day 0,30%
same,HGF-induced activation of MET and AKT,[1],inhibited
same,Numbers of circulating TIE2+ and TIE2+/MET+ monocyte populations,[2],did not alter
same,Median survival,U87-MG xenograft glioma [3],112 days
same,Decrease in BLI signal compared to vehicle,U87-MG xenograft glioma [4],90%
same,Tumor volume at 3 weeks,"GSC11 glioblastoma cells; GSC11, bevacizumab 10 mg/kg i.p. twice per week, Compound 1 10 mg/kg oral twice daily",1.2±0.5 mm^3
same,Tumor volume at 4 weeks,"GSC11 glioblastoma cells; GSC11, same dosing",9.8±2.8 mm^3
same,Tumor volume at 5 weeks,"GSC11 glioblastoma cells; GSC11, same dosing",32.3±14.6 mm^3
same,Factor VIII-positive area,GSC11 glioblastoma cells; GSC11 model,1.1±0.5%
same,Nestin-positive area,GSC11 glioblastoma cells; GSC11 xenograft mouse model,17.7±2.7%
same,Mesenchymal tumor marker vimentin / EMT (immunohistochemistry),GSC11 glioblastoma cells; GSC-11 glioma model,does not cause elevation of vimentin
same,Macrophage infiltration into tumor (F4/80 IHC staining),GSC11 glioblastoma cells; GSC-11 glioma xenograft model,does not result in therapy resistance-mediated increases in macrophage infiltration
same,SKOV-3 tumor growth,SKOV-3,only weakly inhibited
same,IC50,uTIE2 kinase,7.9 nM
